From patent publication US20250353873A1, “COMPOUNDS AND METHODS FOR MODULATING APOE EXPRESSION” (Ionis Pharmaceuticals, Inc., priority 2024, published 2025)
Strand notation (5' to 3'): a small letter for the sugar, then the base; units joined by * are phosphorothioate-linked, units joined directly phosphodiester-linked; [ ] holds rarer units or linkages, { } end groups; capitals alone tell only the bases. [ms] = mesyl phosphoramidate linkage; e = 2'-O-(2-methoxyethyl) (MOE); k = constrained ethyl (cEt); [5mC] = 5-methylcytosine; d = 2'-deoxy (DNA)

Tests used:
[1] = tested on: human APOE RNA; test: Dose-dependent reduction of human APOE RNA in HepG2 cells, electroporation, 20,000 cells per well, average of GAPDH- and PPIA-normalized results (Example 4, Table 12); assay type: cell-based; details: HepG2, 20,000 cells per well; for IC50: approximately 24 hours
Experimental: HepG2 cells plated at a density of 20,000 cells per well were treated by electroporation with various concentrations of modified oligonucleotide as specified in the tables below. […] APOE RNA levels were measured using the human primer probe set RTS3073 (described herein above). APOE RNA levels were normalized to human GAPDH, and human PPIA. Human GAPDH was amplified using human primer probe set RTS104 (described herein above). Human PPIA was amplified using human primer probe set mk_cycloA_2nd (described herein above) The average of the GAPDH-normalized results and the PPIA-normalized results are presented in the table below as percent APOE RNA, relative to the amount of APOE RNA in untreated control cells (% UTC). The half maximal inhibitory concentration (IC50) of each modified oligonucleotide was calculated in GraphPad Prism 10 (GraphPad Software, San Diego, CA) and is also presented in the table below.

[2] = tested on: human APOE RNA; test: Potency (dose response, ED50) in APOE C57BL/6NTac-Apoeem7250 knock-in mice, 4 weeks (Example 14); assay type: in vivo; details: for ED 50 (μg) Cortex / ED 50 (μg) Spinal Cord: single ICV bolus, GraphPad Prism 10
Experimental: Modified oligonucleotides described above were tested in the APOE C57BL/6NTac-Apoeem7250 knock-in mouse model described above.
APOE C57BL/6NTac-Apoeem7250 knock-in mice were divided into groups of 3-4 mice each. A group of 3-4 mice received a single ICV bolus with PBS as a negative control.
Four weeks post treatment, mice were sacrificed, and RNA was extracted from cortical brain tissue and spinal cord for quantitative real-time RT-PCR analysis of RNA expression of […] using human primer probe set RTS3073 (described herein above). APOE RNA levels were normalized to mouse Ppia. Mouse Ppia was amplified using primer probe set m_cyclo24 (described herein above). Results are presented as percent human APOE RNA relative to the amount of APOE RNA in PBS treated animals, (% control). N.C. indicates values that were not calculated. Each experiment is identified in separate tables below.
The half maximal effective dose (ED50) of each modified oligonucleotide was calculated using GraphPad Prism 10 software (GraphPad Software, San Diego, CA).

## 1778131: modified oligonucleotide complementary to human APOE RNA (eA*e[5mC]eTeTeGkG*dT*dG[ms]dA[ms]dA*dT*d[5mC]*dT*dT*dT*dA[ms]kTkT*eA*eA; antisense) [compound 1778131]
[1]; 5 nM
  APOE RNA (% UTC): 102 % UTC
[1]; 13 nM
  APOE RNA (% UTC): 86 % UTC
[1]; 33 nM
  APOE RNA (% UTC): 85 % UTC
[1]; 82 nM
  APOE RNA (% UTC): 70 % UTC
[1]; 205 nM
  APOE RNA (% UTC): 56 % UTC
[1]; 512 nM
  APOE RNA (% UTC): 36 % UTC
[1]; 1,280 nM
  APOE RNA (% UTC): 25 % UTC
[1]; 3,200 nM
  APOE RNA (% UTC): 25 % UTC
[1]; 8,000 nM
  APOE RNA (% UTC): 5 % UTC
[1]; 20,000 nM
  APOE RNA (% UTC): 6 % UTC
[1]
  IC50: 290 nM
[2]; ICV dose 10 μg
  APOE RNA (% control) Cortex: 115 % control
  APOE RNA (% control) Spinal Cord: 79 % control
[2]; ICV dose 30 μg
  APOE RNA (% control) Cortex: 105 % control
  APOE RNA (% control) Spinal Cord: 64 % control
[2]; ICV dose 100 μg
  APOE RNA (% control) Cortex: 61 % control
  APOE RNA (% control) Spinal Cord: 36 % control
[2]; ICV dose 300 μg
  APOE RNA (% control) Cortex: 37 % control
  APOE RNA (% control) Spinal Cord: 40 % control
[2]; ICV dose 700 μg
  APOE RNA (% control) Cortex: 29 % control
  APOE RNA (% control) Spinal Cord: 34 % control
[2]
  ED 50 (μg) Cortex: 216.5 µg
  ED 50 (μg) Spinal Cord: 94.0 µg

## 1778128: modified oligonucleotide complementary to human APOE RNA (eA*e[5mC]eTeTkGkG*dT*dG[ms]dA[ms]dA*dT*d[5mC]*dT*dT*dT*dA[ms]kTeT*eA*eA; antisense) [compound 1778128]
[1]; 5 nM
  APOE RNA (% UTC): 96 % UTC
[1]; 13 nM
  APOE RNA (% UTC): 95 % UTC
[1]; 33 nM
  APOE RNA (% UTC): 83 % UTC
[1]; 82 nM
  APOE RNA (% UTC): 67 % UTC
[1]; 205 nM
  APOE RNA (% UTC): 60 % UTC
[1]; 512 nM
  APOE RNA (% UTC): 37 % UTC
[1]; 1,280 nM
  APOE RNA (% UTC): 24 % UTC
[1]; 3,200 nM
  APOE RNA (% UTC): 25 % UTC
[1]; 8,000 nM
  APOE RNA (% UTC): 22 % UTC
[1]; 20,000 nM
  APOE RNA (% UTC): 14 % UTC
[1]
  IC50: 350 nM

## 1785598: modified oligonucleotide complementary to human APOE RNA (k[5mC]*kT*kT*dG[ms]dG[ms]dT[ms]dG[ms]dA[ms]dA[ms]dT*d[5mC]*dT*dT*dT*dA*dT[ms]kT*kA*dA[ms]kA; antisense) [compound 1785598]
[1]; 5 nM
  APOE RNA (% UTC): 103 % UTC
[1]; 13 nM
  APOE RNA (% UTC): 97 % UTC
[1]; 33 nM
  APOE RNA (% UTC): 88 % UTC
[1]; 82 nM
  APOE RNA (% UTC): 75 % UTC
[1]; 205 nM
  APOE RNA (% UTC): 56 % UTC
[1]; 512 nM
  APOE RNA (% UTC): 36 % UTC
[1]; 1,280 nM
  APOE RNA (% UTC): 23 % UTC
[1]; 3,200 nM
  APOE RNA (% UTC): 9 % UTC
[1]; 8,000 nM
  APOE RNA (% UTC): 11 % UTC
[1]; 20,000 nM
  APOE RNA (% UTC): 11 % UTC
[1]
  IC50: 290 nM
[2]; ICV dose 10 μg
  APOE RNA (% control) Cortex: 104 % control
  APOE RNA (% control) Spinal Cord: 97 % control
[2]; ICV dose 30 μg
  APOE RNA (% control) Cortex: 84 % control
  APOE RNA (% control) Spinal Cord: 70 % control
[2]; ICV dose 100 μg
  APOE RNA (% control) Cortex: 60 % control
  APOE RNA (% control) Spinal Cord: 65 % control
[2]; ICV dose 300 μg
  APOE RNA (% control) Cortex: 37 % control
  APOE RNA (% control) Spinal Cord: 60 % control
[2]; ICV dose 700 μg
  APOE RNA (% control) Cortex: 23 % control
  APOE RNA (% control) Spinal Cord: 41 % control
[2]
  ED 50 (μg) Cortex: 175.4 µg
  ED 50 (μg) Spinal Cord: 416.7 µg

## 1746809 (k[5mC]*dT[ms]kT*dG[ms]kG*dT[ms]dG[ms]dA[ms]dA[ms]dT*d[5mC]*dT*dT*dT*dA[ms]dT*dT[ms]kA*kA*kA; antisense) [Compound 1746809]
[1]; 5 nM
  APOE RNA (% UTC): 97 % UTC
[1]; 13 nM
  APOE RNA (% UTC): 94 % UTC
[1]; 33 nM
  APOE RNA (% UTC): 86 % UTC
[1]; 82 nM
  APOE RNA (% UTC): 72 % UTC
[1]; 205 nM
  APOE RNA (% UTC): 59 % UTC
[1]; 512 nM
  APOE RNA (% UTC): 34 % UTC
[1]; 1,280 nM
  APOE RNA (% UTC): 28 % UTC
[1]; 3,200 nM
  APOE RNA (% UTC): 11 % UTC
[1]; 8,000 nM
  APOE RNA (% UTC): 15 % UTC
[1]; 20,000 nM
  APOE RNA (% UTC): 10 % UTC
[1]
  IC50: 310 nM
[2]; ICV dose 10 μg
  APOE RNA (% control) Cortex: 98 % control
  APOE RNA (% control) Spinal Cord: 105 % control
[2]; ICV dose 30 μg
  APOE RNA (% control) Cortex: 89 % control
  APOE RNA (% control) Spinal Cord: 92 % control
[2]; ICV dose 100 μg
  APOE RNA (% control) Cortex: 79 % control
  APOE RNA (% control) Spinal Cord: 59 % control
[2]; ICV dose 300 μg
  APOE RNA (% control) Cortex: 57 % control
  APOE RNA (% control) Spinal Cord: 48 % control
[2]; ICV dose 700 μg
  APOE RNA (% control) Cortex: 41 % control
  APOE RNA (% control) Spinal Cord: 64 % control
[2]
  ED 50 (μg) Cortex: 446.6 µg
  ED 50 (μg) Spinal Cord: 652.7 µg

## 1778111: modified oligonucleotide complementary to human APOE RNA (eA*e[5mC]eTeTeG*kG*dT*dG[ms]dA[ms]dA*dT*d[5mC]*dT*dT*dT*dA[ms]eTeT*eA*eA; antisense) [compound 1778111]
[1]; 5 nM
  APOE RNA (% UTC): 106 % UTC
[1]; 13 nM
  APOE RNA (% UTC): 88 % UTC
[1]; 33 nM
  APOE RNA (% UTC): 91 % UTC
[1]; 82 nM
  APOE RNA (% UTC): 77 % UTC
[1]; 205 nM
  APOE RNA (% UTC): 62 % UTC
[1]; 512 nM
  APOE RNA (% UTC): 43 % UTC
[1]; 1,280 nM
  APOE RNA (% UTC): 32 % UTC
[1]; 3,200 nM
  APOE RNA (% UTC): 21 % UTC
[1]; 8,000 nM
  APOE RNA (% UTC): 14 % UTC
[1]; 20,000 nM
  APOE RNA (% UTC): 8 % UTC
[1]
  IC50: 440 nM

## 1693105: 6-10-4 MOE gapmer CTTGGTGAATCTTTATTAAA, linkages sosssszzzssssszssss (e[5mC]*eTeT*eG*eG*eT*dG[ms]dA[ms]dA[ms]dT*d[5mC]*dT*dT*dT*dA[ms]dT*eT*eA*eA*eA) [compound 1693105]
[2]; ICV dose 10 μg
  APOE RNA (% control) Cortex: 100 % control
  APOE RNA (% control) Spinal Cord: 71 % control
[2]; ICV dose 30 μg
  APOE RNA (% control) Cortex: 85 % control
  APOE RNA (% control) Spinal Cord: 71 % control
[2]; ICV dose 100 μg
  APOE RNA (% control) Cortex: 77 % control
  APOE RNA (% control) Spinal Cord: 47 % control
[2]; ICV dose 300 μg
  APOE RNA (% control) Cortex: 59 % control
  APOE RNA (% control) Spinal Cord: 49 % control
[2]; ICV dose 700 μg
  APOE RNA (% control) Cortex: 48 % control
  APOE RNA (% control) Spinal Cord: 61 % control
[2]
  ED 50 (μg) Cortex: 573.3 µg
  ED 50 (μg) Spinal Cord: 892.8 µg

## 1785617: modified oligonucleotide complementary to human APOE RNA (k[5mC]*dT[ms]dT[ms]kG*dG[ms]kT*dG[ms]dA[ms]dA[ms]dT[ms]d[5mC]*dT*dT*dT*dA*dT*kT*kA*dA[ms]kA; antisense) [compound 1785617]
[1]; 5 nM
  APOE RNA (% UTC): 95 % UTC
[1]; 13 nM
  APOE RNA (% UTC): 93 % UTC
[1]; 33 nM
  APOE RNA (% UTC): 82 % UTC
[1]; 82 nM
  APOE RNA (% UTC): 68 % UTC
[1]; 205 nM
  APOE RNA (% UTC): 55 % UTC
[1]; 512 nM
  APOE RNA (% UTC): 32 % UTC
[1]; 1,280 nM
  APOE RNA (% UTC): 23 % UTC
[1]; 3,200 nM
  APOE RNA (% UTC): 16 % UTC
[1]; 8,000 nM
  APOE RNA (% UTC): 20 % UTC
[1]; 20,000 nM
  APOE RNA (% UTC): 6 % UTC
[1]
  IC50: 260 nM
